The test system of series [1] is advanced non-small cell lung cancer. Conditions: second-line chemotherapy; cited from earlier work.
Series [2] can be described thus: Pharmacokinetics of AB-16B5 in treated subjects. The series is classed as in vivo, human. The following applies: preliminary pharmacokinetics data (not shown), 12 mg/kg once weekly. From the text: Yet another secondary objective of this study is to determine the pharmacokinetics of AB-16B5 in this subject population.

This is an account of results in US20250108110A1, “COMBINATION THERAPY FOR USE IN TREATMENT OF NON-SMALL CELL LUNG CANCER” (Alethia Biotherapeutics Inc., priority 2022, published 2025).

`CC(=O)O[C@@]12CO[C@@H]1C[C@H](O)[C@@]1(C)C(=O)[C@H](O)C3=C(C)[C@@H](OC(=O)[C@H](O)[C@@H](NC(=O)OC(C)(C)C)c4ccccc4)C[C@@](O)([C@@H](OC(=O)c4ccccc4)[C@H]21)C3(C)C` [docetaxel]: in series [1], the “efficacy of 50 mg/m^2 once every two weeks versus 75 mg/m^2 once every three weeks” value was “as effective as”.

Consider “AB-16B5: humanized IgG2 monoclonal antibody targeting sCLU for the inhibition of cancer-associated EMT; light chain SEQ ID NO:14, heavy chain SEQ ID NO:15”, for which the “accumulation of the antibody in the treated subjects over time” value in series [2] is listed as “accumulation”.
